This is an account of results in patent publication US11040108B2, “Amino acid- and peptide-steroid conjugates and use thereof” (BRANDEIS UNIVERSITY, priority 2016, dated 2021).

Converted amounts (≈) assume the structure as drawn. “And” between values parts separate entries of the source, which are not always exact repeats. Equal values may be shown once. Read-outs that look alike come from different tables or passages of the source.

Data set [1] concerns A2780cis cells. As to the kind of experiment: MTT assay, cytotoxicity against A2780cis. The data set is classed as cell-based, human. Here is the method:
(§1) HeLa, Saos-2, HS-5, HepG2, T98G, and A2780 cells were purchased from American-type Culture Collection (ATCC, USA). A2780cis cell was purchased from Sigma. HeLa cells, HepG-2 cells, and T98G cells were cultured in MEM Medium supplemented with 10% v/v fetal bovine serum, 100 U/mL penicillin, and 100 μg/mL streptomycin. Saos-2 cells were cultured in McCoy's 5a Medium (for Saos-2) supplemented with 15% v/v fetal bovine serum, 100 U/mL penicillin, and 100 μg/mL streptomycin. HS-5 cells were cultured in Dulbecco's Modified Eagle's medium (DMEM) supplemented with 10% v fetal bovine serum (FBS), 100 U/mL penicillin, and 100 μg/mL streptomycin. A2780cis cells were cultured in RPMI 1640 Medium supplemented with 10% v/v fetal bovine serum, 100 U/mL penicillin, and 100 μg/mL streptomycin (cisplatin only necessary every 2-3 passages). All cells were maintained at 37° C. in a humidified atmosphere of 5% CO2.
(§2) An MTT assay was used to test the cytotoxicity. All different cell lines were seeded in 96-well plates at 1×10^5 cells/well for 24 hours followed by removal of the culture medium and subsequent addition of culture medium containing different concentrations of the precursors. At designated time (24/48/72 hours), 10 μL MTT solution (5 mg/mL) was added to each well and incubated at 37° C. for another 4 hours, and then 100 μL of SDS-HCl solution was added to stop the reduction reaction and dissolve the purple formazan. The absorbance of each well at 595 nm was measured by a multimode microplate reader. The cytotoxicity assay was performed three times and the average value of the three measurements was taken.
The activity of conjugate 1a against a platinum-resistant, ovarian cancer cell line (A2780cis) (Behrens et al., “Characterization of a Cis-Diamminedichloroplatinum(Ii)-Resistant Human Ovarian Cancer Cell Line and its Use in Evaluation of Platinum Analogues,” Cancer Res. 47:414 (1987); Masuda et al., “Increased DNA Repair as a Mechanism of Acquired Resistance to Cis-Diamminedichloroplatinum (II) in Human Ovarian Cancer Cell Lines,” Cancer Res. 48:5713 (1988), which are hereby incorporated by reference in their entirety) was first examined. To assess the efficacy of conjugate 1a, the assay was carried out in parallel using the known, clinically used cytotoxic agent, cisplatin.
On the technique in general: Formazan colour is commonly taken as a measure of viable cells.

In data set [2] the test system is T98G glioblastoma cells. The data set can be described thus: MTT assay, cell viability of T98G. The format is cell-based. The note with it: Homo sapiens, read-out: IC50 against T98G. Here is the method: as §1
(§3) An MTT assay was used to test the cytotoxicity. All different cell lines were seeded in 96-well plates at 1×10^5 cells/well for 24 hours followed by removal of the culture medium and subsequent addition of culture medium containing different concentrations of the precursors. […] The absorbance of each well at 595 nm was measured by a multimode microplate reader. […]

The subject of data set [3] is HS-5 cell line (human bone marrow stroma cell line). As to the kind of experiment: MTT assay, cell viability of HS-5. The data set is classed as cell-based. The note with it: for IC50: Homo sapiens, HS5, read-out: IC50 against HS-5. The protocol: as §1, §2
To verify the selectivity of 1a against cancer cells, the HS-5 cell line (human bone marrow stroma cell line) was used; HS-5 hardly overexpresses ALP on cell surface. […] To further confirm that ALP on cell surface (i.e., as an ectophosphatase) contributed to the inhibitory activity of 1a, A2780cis were incubated with 1a and ALP (1 U/mL).
Additional cell viability assays were carried out using conjugates 1a and 1b, optionally with 3, against HepG2 human liver carcinoma cells, Saos-2 osteosarcoma cells, T98G glioblastoma cells, HS-5 (normal bone marrow stromal cells), A2780 ovarian cancer cells (parental line to A2780cis), and Kuramochi ovarian cancer cells. Conjugate 1a was particularly effective against ovarian and cervical cancer cells.

Data set [4] concerns A2780cis cell lines. As to the kind of experiment: Combination of 1a with other anti-cancer agents. The data set is classed as cell-based, human. The conditions noted are these: mixture of 1a with TIC10, Apo2L/TRAIL or doxorubicin. Here is the method:
In addition, 1a causes down regulation of cell survival proteins, Akt (Alexander, “Inhibiting the Akt Pathway in Cancer Treatment,” Pharmacy & Therapeutics 36(4): 225-227 (2011), which is hereby incorporated by reference in its entirety) and Src (Irby et al., “Role of Src Expression and Activation in Human Cancer,” Oncogene 19(49):5636-5642 (2000), which is hereby incorporated by reference in its entirety). Treatment of A2780cis cell lines with 1a (12.5 μM) for 24 hours downregulates expression of Src (FIGS. 13A-B) and Akt (FIGS. 13C-D). […] When used in combination with other anti-cancer agents, TIC10, Apo2L/TRAIL, and doxorubicin, a mixture of 1a with the individual anti-cancer agents was prepared, and then the cells were incubated with the mixture.

For data set [5], the system named is HepG2 human liver carcinoma cells. The data set can be described thus: MTT assay, cell viability of HepG2. The data set is classed as cell-based. The conditions noted are these: read-out: IC50 against HepG-2. The protocol:
as §1, §3

A short description of data set [6]: TEM of assemblies in aqueous solution. The format is physicochemical. The note with it: 1.0 wt %. Here is the method: Sample solution (5 sufficient to cover the grid surface) was placed on the grid. Approximately 10 sec later, sample was rinsed by placing a large drop of the ddH2O on parafilm and allowing the grid to touch the water drop, with the sample-loaded surface facing the parafilm. The grid was tilted and water was gently absorbed from the edge of the grid using a filter paper sliver. This procedure was repeated 3 times. Immediately after rinsing, the staining was conducted by placing a large drop of the uranyl acetate (UA) stain solution on parafilm and allowing the grid to touch the stain solution drop, with the sample-loaded surface facing the parafilm. The grid was tilted and the stain solution was gently absorbed from the edge of the grid using a filter paper sliver. Next, the grid was allowed to dry in air and the grid was examined as soon as possible.
To further understand the inhibitory activity of 1a, transmission electron microscopy (TEM) was used to confirm the EISA of 1b. […] In contrast, uniform nanofibers (diameter of 10±2 nm) formed after the addition of ALP (1 U/mL) into the solution of 1a (FIG. 3B). The resulted nanofibers entangled with each other to result in a viscous solution. […] But the direct dissolution of 2b (1.0 wt %) provided an aqueous solution containing nanoribbon with the diameter of 17±2 nm and in several hundred nanometer length (FIG. 4B). These observations, collectively, confirmed that enzymatic reaction modulated the morphology of the assemblies of the cholesterol conjugates, which partially contributed to the different inhibitory activities of 1a, 1b, 2a, and 2b. That is, being exposed to the cancer cell, 1a (or 2a) turns into 1b (or 2b), a process catalyzed by the extra- or intracellular enzymes of the cancer cells; the resulting 1b (or 2b) self-assembled to form nanoscale assemblies that result in death of the cancer cell.

Turning to `CC(C)CCC[C@@H](C)C1CC[C@H]2[C@@H]3CC=C4CC(OC(=O)NC(Cc5ccc(OP(=O)(O)O)cc5)C(=O)O)CC[C@]4(C)[C@H]3CC[C@]12C` (stereo partly drawn) [1a, Cholesterol-(phospho)D-Tyr], in data set [1] (1a 12.5 μM + ALP 1 U/mL, 48 hour co-culture), the “cell viability of A2780cis treated by 1a with exogenous ALP” value is given as “partially rescued”. For the same compound, the “cell viability of A2780cis treated by 1a with ALP inhibitors” value in data set [1] (1a 12.5 μM + L-Phe or levamisole 1 mM, 48 hours) is “higher cell viability”. In data set [1] (1a 12.5 μM + zVAD-fmk 50 μM, PJ34 1 μM or Nec-1 45 μM, 48 hours), the “cell viability of A2780cis treated by 1a with cell death signaling inhibitors” value is given as “rescued the cells, but only partially”. For the same compound, in data set [1] (72 hours), the “IC50 against A2780cis” value amounted to 6.3 µg/mL (≈ 9.35 µM). The IC50 (in general, the concentration needed to halve the response being measured) is 11 µM and 7.7 µg/mL in data set [1] (Homo sapiens, A2780cis, 48 h, read-out: IC50 against A2780cis, 48 hours); 9 µM in data set [1] (read-out: IC50 against A2780cis, 72 hours); 48 µM in data set [2] (48 hours); 37 µM in data set [2] (72 hours); 32 µM in data set [3] (48 hours); 21 µM in data set [3] (72 hours). In addition, the IC50 in data set [5] (48 hours) came to 45 µM; in data set [5] (72 hours), 35 µM. In data set [1] (incubated with 1a at 24 hours), the “cells viable (cell viability test, A2780cis)” value is given as “more than 80%”. In addition, in data set [3] (12.5 μM, 48 hours (FIG. 5A)), the “cell viability / proliferation of HS-5” value was “innocuous”. For the same compound, the “effect of combination treatments” value in data set [4] is given as “synergistic effects”. In addition, the “morphology in aqueous solution without ALP” value in data set [6] (pH 7.4) was “disorder aggregates”. In addition, the “diameter of nanofibers formed after addition of ALP” value in data set [6] (pH 7.4, ALP 1 U/mL, 24 hours) came to 10±2 nm.
